# Reference: publication PMC9394736 (FASEB journal : official publication of the Federation of …, 2020)
# Assays:
# GST Mu = GST Mu (Schistosoma japonicum, UniProt P08515); experiment: differential scanning fluorimetry; assay type: binding; settings: 1 mM ethacrynic acid, without or with 1 mM GSH; H-site
# GDAP1ΔNT = target: T1, GDAP1ΔNT (Mus musculus, UniProt O88741); experiment: differential scanning fluorimetry; assay type: binding; settings: 2 mM or 0.5 mM ethacrynic acid; H-site
# T1 sequence (O88741 20-322): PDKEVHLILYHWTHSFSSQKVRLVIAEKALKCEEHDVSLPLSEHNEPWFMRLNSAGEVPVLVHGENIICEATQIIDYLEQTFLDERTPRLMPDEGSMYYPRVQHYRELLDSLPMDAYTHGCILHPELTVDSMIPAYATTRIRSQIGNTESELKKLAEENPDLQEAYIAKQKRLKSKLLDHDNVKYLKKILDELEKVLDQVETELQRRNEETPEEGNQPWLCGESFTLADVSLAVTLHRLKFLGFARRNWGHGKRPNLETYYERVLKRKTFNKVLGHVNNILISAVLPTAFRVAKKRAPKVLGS
# GDAP1ΔTM = target: T2, GDAP1ΔTM (Mus musculus, UniProt O88741); experiment: differential scanning fluorimetry; assay type: binding; settings: 2 mM or 0.5 mM ethacrynic acid; H-site
# T2 sequence (O88741 1-322): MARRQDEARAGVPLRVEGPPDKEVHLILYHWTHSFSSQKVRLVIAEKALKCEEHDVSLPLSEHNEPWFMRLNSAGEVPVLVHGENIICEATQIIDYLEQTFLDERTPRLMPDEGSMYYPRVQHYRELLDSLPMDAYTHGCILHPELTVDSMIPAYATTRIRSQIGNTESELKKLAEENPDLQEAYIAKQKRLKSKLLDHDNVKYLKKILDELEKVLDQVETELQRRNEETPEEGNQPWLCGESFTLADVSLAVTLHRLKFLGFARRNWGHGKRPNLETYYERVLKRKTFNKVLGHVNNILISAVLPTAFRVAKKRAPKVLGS
# GDAP1ΔNTΔHD1 = target: T3, GDAP1ΔNTΔHD1 (Mus musculus, UniProt O88741); experiment: differential scanning fluorimetry; assay type: binding; settings: 2 mM or 0.5 mM ethacrynic acid; H-site
# T3 sequence (O88741 20-292): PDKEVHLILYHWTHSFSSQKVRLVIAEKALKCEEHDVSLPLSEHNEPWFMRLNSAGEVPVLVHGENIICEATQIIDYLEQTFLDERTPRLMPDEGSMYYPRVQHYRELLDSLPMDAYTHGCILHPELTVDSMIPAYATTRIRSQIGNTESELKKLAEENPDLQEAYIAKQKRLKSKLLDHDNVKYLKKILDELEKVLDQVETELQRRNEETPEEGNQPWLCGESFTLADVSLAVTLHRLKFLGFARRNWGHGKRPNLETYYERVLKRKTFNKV
# GDAP1ΔHD1 = target: T4, GDAP1ΔHD1 (Mus musculus, UniProt O88741); experiment: differential scanning fluorimetry; assay type: binding; settings: 2 mM or 0.5 mM ethacrynic acid; H-site
# T4 sequence (O88741 1-292): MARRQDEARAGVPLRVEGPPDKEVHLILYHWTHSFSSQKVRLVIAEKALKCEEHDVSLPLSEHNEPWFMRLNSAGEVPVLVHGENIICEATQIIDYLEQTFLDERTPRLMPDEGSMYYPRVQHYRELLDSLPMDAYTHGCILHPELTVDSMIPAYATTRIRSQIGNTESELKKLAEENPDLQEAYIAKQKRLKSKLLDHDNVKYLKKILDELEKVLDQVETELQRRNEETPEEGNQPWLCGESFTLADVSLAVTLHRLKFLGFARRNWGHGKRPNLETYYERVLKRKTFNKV
# [1] = target: GST Mu (Mu class glutathione S-transferase from Schistosoma japonicum) (Schistosoma japonicum); experiment: SEC
# Chain of GST Mu (P08515 whole entry): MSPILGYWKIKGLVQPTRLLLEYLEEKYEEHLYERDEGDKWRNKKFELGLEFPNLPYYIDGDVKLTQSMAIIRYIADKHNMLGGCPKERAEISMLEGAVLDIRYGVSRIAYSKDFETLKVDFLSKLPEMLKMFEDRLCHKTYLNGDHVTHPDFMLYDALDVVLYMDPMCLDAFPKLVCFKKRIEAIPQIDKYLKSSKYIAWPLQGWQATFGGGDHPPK
# Chain of GST Mu (Mu class glutathione S-transferase from Schistosoma japonicum) (enzyme) (P08515 2-218): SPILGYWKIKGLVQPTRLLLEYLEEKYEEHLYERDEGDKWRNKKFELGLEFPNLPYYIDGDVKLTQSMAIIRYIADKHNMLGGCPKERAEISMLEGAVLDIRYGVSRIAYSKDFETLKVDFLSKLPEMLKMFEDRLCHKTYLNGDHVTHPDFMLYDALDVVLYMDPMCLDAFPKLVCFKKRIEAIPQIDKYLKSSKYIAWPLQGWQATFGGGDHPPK
Compound,melting temperature shift (GST Mu),melting temperature shift (GDAP1ΔNT),melting temperature shift (GDAP1ΔTM),melting temperature shift (GDAP1ΔNTΔHD1),melting temperature shift (GDAP1ΔHD1),stoichiometry N [1]
C=C(CC)C(=O)c1ccc(OCC(=O)O)c(Cl)c1Cl [ethacrynic acid],GST Mu had an enhanced shift in the presence of both glutathione and EA,"GDAP1ΔTM, GDAP1ΔHD1, GDAP1ΔNT, GDAP1ΔNT ΔHD1 all retained ethacrynic acid binding","GDAP1ΔTM, GDAP1ΔHD1, GDAP1ΔNT, GDAP1ΔNT ΔHD1 all retained ethacrynic acid binding","GDAP1ΔTM, GDAP1ΔHD1, GDAP1ΔNT, GDAP1ΔNT ΔHD1 all retained ethacrynic acid binding",GDAP1ΔHD1 retains binding but the magnitude of the shift was reduced,
GST Mu (Mu class glutathione S-transferase from Schistosoma japonicum) (enzyme),,,,,,2
